Experimental data as given in PMC9863764, “Roles of Human Liver Cytochrome P450 Enzymes in Tenatoprazole Metabolism” (Pharmaceutics, 2022).

How the values were obtained:
[1] = parameters: method as in PMID 27640009; conditions: neutral pH; cited from earlier work
human CYP2C19 = biological target: T1, human CYP2C19 (Homo sapiens, UniProt P33261); assay: Steady-state kinetics of tenatoprazole oxidation by recombinant CYP2C19; format: in vitro ADME; conditions: recombinant CYP2C19, substrate tenatoprazole
T1 construct: made in house; host or cells: Escherichia coli (membrane fractions)
T1 sequence (P33261 whole entry): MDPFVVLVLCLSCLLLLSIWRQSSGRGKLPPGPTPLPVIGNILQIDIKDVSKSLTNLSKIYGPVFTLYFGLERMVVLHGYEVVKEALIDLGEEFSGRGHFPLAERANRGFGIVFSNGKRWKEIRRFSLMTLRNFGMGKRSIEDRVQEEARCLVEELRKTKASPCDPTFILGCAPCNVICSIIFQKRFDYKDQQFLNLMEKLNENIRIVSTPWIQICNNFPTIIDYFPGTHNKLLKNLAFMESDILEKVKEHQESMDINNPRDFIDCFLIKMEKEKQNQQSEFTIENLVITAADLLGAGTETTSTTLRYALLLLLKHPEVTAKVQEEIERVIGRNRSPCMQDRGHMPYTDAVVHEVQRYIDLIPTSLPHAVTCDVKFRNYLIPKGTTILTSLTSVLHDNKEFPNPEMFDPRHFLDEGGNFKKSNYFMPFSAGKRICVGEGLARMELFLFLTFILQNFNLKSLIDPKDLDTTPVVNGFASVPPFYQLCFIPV
Procedure: Pooled liver microsomes from human samples were obtained from ThermoFisher Scientific (Waltham, MA, USA). […] Membrane fractions expressing both P450 and CPR of E. coli were prepared as described previously and were used for the catalytic activity assays. […] The reaction was started by adding NGS and the incubation was continued for the indicated time at 37 °C. Incubation was then stopped by adding ice-chilled ethyl acetate (0.50 mL) and omeprazole (IS) was added to a final concentration of 20 μM. […] Phenomenex, Torrance, CA, USA). The products formed were analyzed by HPLC at […]. […] The kinetic parameters (kcat and Km) were determined by using a Michaelis-Menten nonlinear regression analysis with GraphPad Prism (GraphPad Software, San Diego, CA, USA).

[2] = parameters: method as in PMID 23205582; conditions: compared with other PPIs such as lansoprazole and omeprazole; cited from earlier work
[3] = system: human liver microsomes (HLMs); assay: Time course of oxidation of tenatoprazole and tenatoprazole sulfide by human liver microsomes (HPLC); format: in vitro ADME; conditions: for tenatoprazole remained: substrate tenatoprazole 500 μM
Procedure: A racemate of tenatoprazole was used in this work because the chiral tenatoprazoles currently are not commercially available. The reactions using HLMs contained incubation at 37 °C in 0.25 mL mixtures containing P450 (0.5 mg protein/mL) in 100 mM potassium phosphate buffer (pH 7.4), an NADPH-generating system (NGS, final concentration of 10 mM glucose-6-phosphate, 0.50 mM NADP^+, 1.0 IU yeast glucose-6-phosphate dehydrogenase per mL), and 0.1 mM of tenatoprazole or tenatoprazole sulfide. Incubations generally were performed for 2 h in the presence or absence of the NGS. Tenatoprazole and its metabolites were extracted twice using cold ethyl acetate as an organic solvent. Then centrifugation (1000× g, 20 min) was done to separate the organic layer from the aqueous layer. Omeprazole was added to this solution as an internal standard (IS) at a final 20 μM concentration. The organic layer was concentrated under nitrogen gas stream. The dried residues were then dissolved in the mobile phase (180 μL) and 30 μL was injected onto the column.
High-performance liquid chromatography (HPLC) was performed on the basis of a previously developed method for tenatoprazole and its metabolites, as described elsewhere. The analytical column was a Gemini C18 column (4.6 × 150 mm, 5 μm; Phenomenex), and the HPLC mobile phase consisted of acetonitrile and 5 mM potassium phosphate buffer (pH 7.3) (25:75, v/v). The substrate and its metabolites were detected at A302. The HPLC profile of the authentic compounds (i.e., tenatoprazole and its metabolites) were measured to compare to identify the major metabolites of tenatoprazole and tenatoprazole sulfide produced by HLMs.
The time course of the oxidation of tenatoprazole and tenatoprazole sulfide by HLMs (0.5 mg protein/mL) was analyzed to the estimated yield of metabolites and percentage of each metabolite using 0.60 mM substrate in 0.25 mL of 0.10 M potassium phosphate buffer (pH 7.4). After NGS was added to initiate the reaction, the samples were incubated for the designated time (i.e., 2, 5, 10, and 30 min, and 1, 2, 4, 8, 12, and 24 h) at 37 °C. Product formation was quantified using HPLC analysis, as mentioned above.
Calibration standard curves of tenatoprazole were made using a blank control sample (a reaction mixture without substrate and IS) and 12 samples containing tenatoprazole and omeprazole (IS) covering the concentration ranges of 1–500 μM, as described previously. The peak area ratio of tenatoprazole to IS was linear with respect to the analyte concentration over the range of 1–500 μM. The metabolites were quantified by comparing the peak areas of each metabolite to the mean peak areas of the IS (20 μM omeprazole).

Row | Compound | spontaneous or nonenzymatic degradation to omeprazole sulfide [1] | sulfoxidation of tenatoprazole by CYP2C19 (human CYP2C19) | plasma half-life, times longer than those of other PPI drugs [2] [times] | tenatoprazole remained ([3]; HLM reaction mixture without NADPH, after 12 h) [%] | tenatoprazole remained ([3]; HLMs, presence of NADPH, 12 h of incubation, 37 °C) [%] | product formed from tenatoprazole sulfide (% of substrate) ([3]; substrate tenatoprazole sulfide 500 μM, HLMs, presence of NADPH, after 12 h) [%]
1 | COc1ccc2[nH]c([S+]([O-])Cc3ncc(C)c(OC)c3C)nc2c1 (stereo not drawn) [omeprazole, Omeprazole] | not spontaneously or nonenzymatically degraded | – | – | – | – | –
2 | COc1ccc2[nH]c([S+]([O-])Cc3ncc(C)c(OC)c3C)nc2n1 (stereo not drawn) [tenatoprazole, Tenatoprazole] | – | did not catalyze | ~7 | 4.4 | 1.0 | 0.49
